# Measured values published in US11453669B2, “Polycyclic pyridone derivative” (Shionogi & Co., Ltd., priority 2018, dated 2022).
# Read-outs that look alike come from different tables or passages of the source.
# What was measured:
# [1] = system: HIV; assay: Anti-HIV activity (MT-4 cells, MTT); assay type: cell-based; details: Human immunodeficiency virus 1, MT4, 96 h, read-out: EC50_nM (50% HIV inhibitory concentration)
# Description: Serial dilutions of a test sample were prepared in a 96-well microplate (50 μL/well). 2.5×10^5 cells/mL of an MT-4 cell suspension was dispensed at 100 μL/well to the plate containing the test sample. Then, an HIV virus solution was dispensed at 50 μL/well. The plate was mixed with a plate mixer and cultured for 4 days in a CO2 incubator. An MTT (3-(4,5-dimethylthiazol-2-yl)-2,5-diphenyltetrazolium bromide) solution was dispensed at 30 μL/well. The plate was reacted for 1 hour in a CO2 incubator. 150 μL of the supernatant was removed from each well so as not to take up the cells. 150 μL of a cell lysis solution was added to each well and well mixed with a plate mixer until the cells were completely lysed. The absorbance of the mixed plate was measured at two wavelengths of 560 nm and 690 nm using a microplate reader.
# [2] = assay type: in vitro ADME; details: human, 30 min, 0.5 μmol/L, pH 7.4
# Description: Using commercially available pooled human liver microsomes, a compound of the present invention was reacted for a constant time, and a remaining rate was calculated by comparing a reacted sample and an unreacted sample, thereby, a degree at which the compound of the present invention was metabolized in liver was assessed.
# A reaction was performed (oxidative reaction) at 37° C. for 0 minute or 30 minutes in the presence of 1 mmol/L NADPH in 0.2 mL of a buffer solution (50 mmol/L Tris-HCl pH 7.4, 150 mmol/L potassium chloride, 10 mmol/L magnesium chloride) containing 0.5 mg protein/mL of human liver microsomes. After the reaction, 50 μL of the reaction solution was added to 100 μL of a solution of methanol/acetonitrile=1/1 (v/v), and the mixture was mixed and centrifuged at 3000 rpm for 15 minutes. The compound of the present invention in the centrifugation supernatant was quantified by LC/MS/MS or solid-phase extraction (SPE)/MS. The amount of the compound of the present invention remaining after the reaction was calculated with the amount of the compound at 0 minutes of the reaction defined as 100%.
# [3] = system: HIV mutant strain 1 (E138K/G140S/Q148H/N155H); assay type: cell-based; details: FC=EC50 of the mutant strain/EC50 of the wild strain, HeLa-CD4 cells
# Description: (§1) Serial dilutions of a test sample were prepared in a 96-well microplate (50 μL/well). 2.5×10^5 cells/mL of a HeLa-CD4 cell suspension was dispensed at 100 μL/well to the plate containing the test sample. Then, an HIV virus solution (wild strain and mutant strain) was dispensed at 50 μL/well. The plate was mixed with a plate mixer and cultured for 3 days in a CO2 incubator. The culture supernatant in each well was removed by suction. A cell lysis buffer in a reporter assay kit was dispensed at 100 μL/well, and the plate was frozen in a freezer (−80° C.). The plate frozen in a freezer was thawed at room temperature, then mixed with a plate mixer, and centrifuged at 1,200 rpm for 5 minutes. The supernatant of each well was dispensed at 20 μL/well to a 96-well microplate (BLACK). A chemiluminescent in the reporter assay kit reagent was dispensed at 100 μL/well and reacted at room temperature for approximately 1 hour. Then, luminescence intensity was measured using MicroBeta TRILUX.
# [4] = system: HIV mutant strain 2 (E92Q/E138T/G140S/Q148H); assay type: cell-based; details: FC=EC50 of the mutant strain/EC50 of the wild strain, HeLa-CD4 cells
# Description: as §1
# [5] = MT-4 cells, cultured 4 days, MTT
Compound,"EC50 [1, 5] [nM]",further results
C[C@@H]1CC[C@H]2N(C)C(=O)c3c(O)c(=O)c(-c4nnc(Cc5ccc(F)cc5F)s4)cn3N12 [II-029],–,EC50 [1]: 0.66 nM; residual rate [2]: 85.3; FC (fold change) for mutant strain 1 [3]: 7.2; FC (fold change) for mutant strain 2 [4]: 6.5
CCN1C(=O)c2c(O)c(=O)c(-c3nnc(Cc4ccc(F)cc4)s3)cn2N2CCOC[C@@H]12 [II-020],0.7,–
CN1C(=O)c2c(O)c(=O)c(-c3nnc(Cc4ccc(F)cc4F)s3)cn2N2Cc3ccccc3[C@@H]12 [II-040],1.3,–
CCN1C(=O)c2c(O)c(=O)c(-c3nnc(Cc4cccc(Cl)c4F)s3)cn2N2CCCC[C@@H]12 [Compound I-006],2.7,–
CN1C(=O)c2c(O)c(=O)c(-c3nnc(Cc4ccc(F)cc4F)s3)cn2N2C[C@@H]3CC[C@@H](C3)[C@@H]12 [II-055],–,EC50 [1]: 0.14 nM; residual rate [2]: 93.9; FC (fold change) for mutant strain 1 [3]: 15; FC (fold change) for mutant strain 2 [4]: 11
CCN1C(=O)c2c(O)c(=O)c(-c3cnn(Cc4ncc(Cl)cc4F)c3)cn2N2CCCC[C@H]12 [II-014],61,–
CCN1C(=O)c2c(O)c(=O)c(-c3cnn(Cc4cccc(Cl)c4F)c3)cn2N2CCCC[C@@H]12 [II-008],4.5,–
C[C@@H]1CCN2[C@@H](C1)N(C)C(=O)c1c(O)c(=O)c(-c3nnc(Cc4c(F)cc(F)cc4F)s3)cn12 [II-058],–,EC50 [1]: 0.69 nM; residual rate [2]: 94.2; FC (fold change) for mutant strain 1 [3]: 6.1; FC (fold change) for mutant strain 2 [4]: 6.1
CCN1C(=O)c2c(O)c(=O)c(-c3nnc(Cc4cc(F)c(F)cc4F)s3)cn2N2C[C@@H]3CC[C@@H](C3)[C@@H]12 [II-062],–,EC50 [1]: 5.2 nM; residual rate [2]: 71.7; FC (fold change) for mutant strain 1 [3]: 8.3; FC (fold change) for mutant strain 2 [4]: 6.6
CN1C(=O)c2c(O)c(=O)c(-c3nnc(Cc4cccc(Cl)c4F)s3)cn2N2CCOC[C@@H]12 [II-069],–,EC50 [1]: 0.24 nM; residual rate [2]: 102; FC (fold change) for mutant strain 1 [3]: 30; FC (fold change) for mutant strain 2 [4]: 25
CCN1C(=O)c2c(O)c(=O)c(-c3cnn(Cc4cccc(Cl)c4F)c3)cn2N2CCCC[C@H]12 [II-007],14,–
CN1C(=O)c2c(O)c(=O)c(-c3nnc(Cc4ccc(F)cc4F)s3)cn2N2Cc3ccccc3[C@H]12 [II-039],3.8,–
CCN1C(=O)c2c(O)c(=O)c(-c3ncc(Cc4ccc(F)cc4F)s3)cn2N2CCCC[C@H]12 [Compound I-003],7.1,–
CCN1C(=O)c2c(O)c(=O)c(-c3nnc(Cc4ccc(F)c(F)c4F)s3)cn2N2CCCC[C@H]12 [Compound I-013],3,–
CN1C(=O)c2c(O)c(=O)c(-c3nnc(Cc4cccc(Cl)c4F)s3)cn2N2CCCC[C@H]12 [II-001],4.3,–
CN1C(=O)c2c(O)c(=O)c(-c3nnc(Cc4cccc(Cl)c4F)s3)cn2N2CCCC[C@@H]12 [II-002],1.6,–
CCN1C(=O)c2c(O)c(=O)c(-c3cnn(Cc4ccc(F)cc4F)c3)cn2N2CCCC[C@H]12 [II-005],9.7,–
CCN1C(=O)c2c(O)c(=O)c(-c3nnc(Cc4cccc(Cl)c4F)s3)cn2N2CCCC[C@H]12 [Compound I-005],3.2,–
CCN1C(=O)c2c(O)c(=O)c(-c3nnc(Cc4ccc(F)c(Cl)c4)s3)cn2N2CCCC[C@H]12 [Compound I-009],7.2,–
CCN1C(=O)c2c(O)c(=O)c(-c3nnc(Cc4ccc(F)c(Cl)c4)s3)cn2N2CCCC[C@@H]12 [Compound I-010],3.8,–
CN1C(=O)c2c(O)c(=O)c(-c3nnc(Cc4ccc(F)cc4F)s3)cn2N2CCOC[C@H]12 [II-009],–,EC50 [1]: 1.3 nM
CCN1C(=O)c2c(O)c(=O)c(-c3nnc(Cc4ccc(F)cc4)s3)cn2N2CCOC[C@H]12 [II-019],2.1,–

# Now from value to molecule, other results behind:
"EC50 [1, 5] [nM]",Compound,further results
0.39,CCN1C(=O)c2c(O)c(=O)c(-c3nnc(Cc4c(F)cc(F)cc4F)s3)cn2N2CC[C@H](C)[C@@H]12 [II-026],–
0.13,C[C@@H]1CC[C@@H]2N(C)C(=O)c3c(O)c(=O)c(-c4nnc(Cc5ccc(F)cc5F)s4)cn3N12 [II-028],–
1,CC(C)N1C(=O)c2c(O)c(=O)c(-c3nnc(Cc4ccc(F)cc4F)s3)cn2N2CC[C@@H](C)C[C@@H]12 [II-059],–
1.1,CCN1C(=O)c2c(O)c(=O)c(-c3nnc(Cc4c(F)cc(F)cc4F)s3)cn2N2CCOC[C@H]12 [II-017],–
1.6,CCN1C(=O)c2c(O)c(=O)c(-c3nnc(Cc4ccc(F)cc4F)s3)cn2N2CCOC[C@H]12 [II-015],–
1.1,CCN1C(=O)c2c(O)c(=O)c(-c3nnc(Cc4ccc(F)cc4F)s3)cn2N2[C@H](C)CCC[C@@H]12 [II-066],–
2.7,CC(C)N1C(=O)c2c(O)c(=O)c(-c3nnc(Cc4c(F)cc(F)cc4F)s3)cn2N2CC[C@@H](C)C[C@@H]12 [II-060],–
0.25,CN1C(=O)c2c(O)c(=O)c(-c3nnc(Cc4c(F)cc(F)cc4F)s3)cn2N2CCOC[C@@H]12 [II-012],–
0.7,CN1C(=O)c2c(O)c(=O)c(-c3nnc(Cc4c(F)cc(F)cc4F)s3)cn2N2CCCC[C@@H]12 [II-004],–
2.2,CCN1C(=O)c2c(O)c(=O)c(-c3nnc(Cc4c(F)cc(F)cc4F)s3)cn2N2CCCC[C@H]12 [Compound I-007],–
0.5,CN1C(=O)c2c(O)c(=O)c(-c3nnc(Cc4c(F)cc(F)cc4F)s3)cn2N2CCOC[C@H]12 [II-011],–
0.67,CCN1C(=O)c2c(O)c(=O)c(-c3nnc(Cc4ccc(F)cc4F)s3)cn2N2CC[C@H](C)[C@@H]12 [II-022],–
5,CCN1C(=O)c2c(O)c(=O)c(-c3nnc(Cc4cc(F)c(F)cc4F)s3)cn2N2CCCC[C@H]12 [Compound I-011],–
1.6,CCN1C(=O)c2c(O)c(=O)c(-c3nnc(Cc4ccc(F)cc4)s3)cn2N2C[C@H]3CC[C@H](O3)[C@H]12 [II-049],–
0.28,CN1C(=O)c2c(O)c(=O)c(-c3nnc(Cc4c(F)cc(F)cc4F)s3)cn2N2C[C@@H]3CC[C@@H](O3)[C@@H]12 [II-035],–
1.3,CCN1C(=O)c2c(O)c(=O)c(-c3nnc(Cc4ccc(F)c(F)c4F)s3)cn2N2CCCC[C@@H]12 [Compound I-014],–
1.4,C[C@@H]1CC[C@@H]2N(C)C(=O)c3c(O)c(=O)c(-c4nnc(Cc5c(F)cc(F)cc5F)s4)cn3N12 [II-030],–
2.6,CCN1C(=O)c2c(O)c(=O)c(-c3nnc(Cc4ccc(F)cc4F)s3)cn2N2C[C@@H](C)C[C@H]12 [II-021],–
2,CCN1C(=O)c2c(O)c(=O)c(-c3nnc(Cc4c(F)cc(F)cc4F)s3)cn2N2C[C@H]3CC[C@H](O3)[C@H]12 [II-045],–
0.2,C[C@H]1CC[C@H]2N(C)C(=O)c3c(O)c(=O)c(-c4nnc(Cc5c(F)cc(F)cc5F)s4)cn3N2C1 [II-042],–
0.9,CCN1C(=O)c2c(O)c(=O)c(-c3nnc(Cc4c(F)cc(F)cc4F)s3)cn2N2C[C@@H](C)C[C@H]12 [II-025],–
0.13,C[C@H]1CCN2[C@@H](C1)N(C)C(=O)c1c(O)c(=O)c(-c3nnc(Cc4ccc(F)cc4F)s3)cn12 [II-032],–
1.3,CC(C)N1C(=O)c2c(O)c(=O)c(-c3nnc(Cc4c(F)cc(F)cc4F)s3)cn2N2C[C@H]3CC[C@H](O3)C12 (some centres unmarked) [II-053],–
0.13,C[C@@H]1CC[C@H]2N(C)C(=O)c3c(O)c(=O)c(-c4nnc(Cc5c(F)cc(F)cc5F)s4)cn3N12 [II-031],–
0.19,CCN1C(=O)c2c(O)c(=O)c(-c3nnc(Cc4ccc(F)cc4F)s3)cn2N2CCOC[C@@H]12 [II-016],–
1.4,CCN1C(=O)c2c(O)c(=O)c(-c3nnc(Cc4ccc(F)cc4F)s3)cn2N2C[C@H]3CC[C@H](O3)[C@H]12 [II-047],–
2,CN1C(=O)c2c(O)c(=O)c(-c3nnc(Cc4c(F)cc(F)cc4F)s3)cn2N2C[C@H]3CC[C@H](O3)[C@H]12 [II-036],–
0.13,C[C@@H]1CCN2[C@@H](C1)N(C)C(=O)c1c(O)c(=O)c(-c3nnc(Cc4ccc(F)cc4F)s3)cn12 [II-034],–
